The values that follow come from paper PMC6214665 (Bioorganic & medicinal chemistry letters, 2017).

Molecules are shown by their SMILES.

Data set [1] can be described thus: MRC5 cell proliferation counterscreen. The data set is classed as cell-based. Conditions: human, MRC5 cells, MRC5 EC50, cytotoxicity, human cell line. Background: A counterscreen serves to expose hits that act by an unwanted route or on another target.
In data set [2] the test system is T. brucei. The experiment in a line: T. brucei cell proliferation assay. The data set is classed as cell-based, Trypanosoma brucei.
Data set [3] has as its system T. cruzi. In words: T. cruzi cell proliferation assay. The data set is classed as cell-based. Particulars: Trypanosoma cruzi, read-out: T. cruzi EC50, mean ± SD; n = 4.

For `O=c1nc(-c2ccccc2)c2cc(-c3ccncc3)ccc2[nH]1` [Compound 1], the EC50 in data set [1] was greater than 50 µM. Regarding `Cc1cc(-c2ccc3[nH]c(=O)nc(-c4ccccc4)c3c2)ccn1` [Compound 5], the “fold loss of potency in T. brucei assay” value in data set [2] (relative to 1) is on record as less than 3 fold. For the same compound, the EC50 in data set [1] was greater than 50 µM. Regarding `O=c1nc(-c2ccccc2)c2cc(-c3cccnc3)ccc2[nH]1` [Compound 6], the EC50 in data set [1] is greater than 50 µM.

`Cc1ccc(-c2ccc3[nH]c(=O)nc(-c4ccccc4)c3c2)cn1` [Compound 7] gave an EC50 in data set [1] greater than 50 µM.

As to `Cc1ccncc1-c1ccc2[nH]c(=O)nc(-c3ccccc3)c2c1` [Compound 8], the figures for the EC50 in data set [1] and in data set [3] were greater than 50 µM and less than 10 µM, respectively. With `Cc1cncc(-c2ccc3[nH]c(=O)nc(-c4ccccc4)c3c2)c1` [Compound 9], the EC50 in data set [1] was greater than 50 µM; in data set [3], less than 10 µM. `O=c1nc(-c2ccccc2)c2cc(-c3ccc(C(F)(F)F)nc3)ccc2[nH]1` [Compound 10] gave an EC50 in data set [1] greater than 50 µM. As to `CN(C)c1ccc(-c2ccc3[nH]c(=O)nc(-c4ccccc4)c3c2)cn1` [Compound 11], the EC50 in data set [1] was greater than 50 µM.

For the compound `O=c1nc(-c2ccccc2)c2cc(-c3ccc(N4CCCC4)nc3)ccc2[nH]1` [Compound 12], the EC50 in data set [1] was greater than 50 µM; in data set [3] it was less than 10 µM. The like results for `O=c1nc(-c2ccccc2)c2cc(-c3cnc4ccccc4c3)ccc2[nH]1` [Compound 13] were, in that order, greater than 50 µM and less than 10 µM.

In the case of `O=c1nc(-c2ccccc2)c2cc(-c3ccccc3)ccc2[nH]1` [Compound 14], the “fold loss of potency in T. brucei assay” value in data set [2] (relative to 1) is ~ 2.5 fold. This compound showed an EC50 in data set [1] greater than 50 µM. For the compound `O=c1nc(-c2ccccc2)c2cc(-c3ccccc3F)ccc2[nH]1` [Compound 15], the EC50 in data set [1] is greater than 50 µM; in data set [3], less than 10 µM. The like results for `O=c1nc(-c2ccccc2)c2cc(-c3cccc(F)c3)ccc2[nH]1` [Compound 16] were, in that order, greater than 50 µM and less than 10 µM.

Turning to `O=c1nc(-c2ccccc2)c2cc(-c3ccc(F)cc3)ccc2[nH]1` [Compound 17], the concentration for a half-maximal effect (EC50) is greater than 50 µM in data set [1] and less than 10 µM in data set [3]. Consider `N#Cc1ccc(-c2ccc3[nH]c(=O)nc(-c4ccccc4)c3c2)cc1` [Compound 18], for which, in data set [1], the EC50 was greater than 50 µM. Same read-out and setting: the result for `CNC(=O)c1cccc(-c2ccc3[nH]c(=O)nc(-c4ccccc4)c3c2)c1` [Compound 19] reads greater than 50 µM.

For the compound `O=c1nc(-c2ccccc2)c2cc(-c3cccc(N4CCOCC4)c3)ccc2[nH]1` [Compound 20], the EC50 in data set [1] was greater than 50 µM. Turning to `O=c1nc(-c2ccccc2)c2cc(-c3ccc(N4CCOCC4)cc3)ccc2[nH]1` [Compound 21], the EC50 in data set [3] is less than 10 µM. Consider `O=c1nc(-c2ccccc2)c2cc(-c3cncnc3)ccc2[nH]1` [Compound 22], for which the EC50 in data set [1] is greater than 50 µM. With `Cc1noc(C)c1-c1ccc2[nH]c(=O)nc(-c3ccccc3)c2c1` [Compound 23], in data set [1], the EC50 is greater than 50 µM. In turn, `O=c1nc(-c2ccccc2)c2cc(-c3cc[nH]n3)ccc2[nH]1` [Compound 24] had an EC50 in data set [1] greater than 50 µM. Consider `O=c1nc(-c2ccccc2)c2cc(-c3cn[nH]c3)ccc2[nH]1` [Compound 25], for which the EC50 in data set [3] is less than 10 µM. `Cn1cc(-c2ccc3[nH]c(=O)nc(-c4ccccc4)c3c2)cn1` [Compound 26] returned a 50% effective concentration (EC50) in data set [1] greater than 50 µM. In data set [1], `Cn1nccc1-c1ccc2[nH]c(=O)nc(-c3ccccc3)c2c1` [Compound 27] displayed a 50% effective concentration (EC50) greater than 50 µM.

For `O=c1nc(-c2ccccc2)c2ccc(-c3ccncc3)cc2[nH]1` [Compound 28], the EC50 in data set [1] is greater than 50 µM. For the compound `O=c1nc(-c2ccccc2)c2ccc(-c3cccnc3)cc2[nH]1` [Compound 29], the EC50 in data set [1] was greater than 50 µM.

On to `O=c1nc(-c2ccccc2)c2ccc(-c3cncnc3)cc2[nH]1` [Compound 30], for which the 50% effective concentration (EC50) in data set [1] is greater than 50 µM. On to `O=c1nc(-c2ccccc2)c2ccc(-c3cccc(N4CCOCC4)c3)cc2[nH]1` [Compound 31], for which the EC50 in data set [1] was greater than 50 µM.

Take `O=c1nc(-c2ccccc2)c2ccc(-c3ccc(F)cc3)cc2[nH]1` [Compound 32]: in data set [1], the EC50 was greater than 50 µM. In the case of `Cn1ccc(-c2cccc3[nH]c(=O)nc(-c4ccccc4)c23)n1` [Compound 33], in data set [1], the EC50 is greater than 50 µM.

As to `N#Cc1ccc(-c2cccc3[nH]c(=O)nc(-c4ccccc4)c23)cc1` [Compound 34], the EC50 in data set [1] was greater than 50 µM.

In the case of `Cc1ccc2[nH]c(=O)nc(-c3ccccc3)c2c1` [Compound 35], the EC50 in data set [1] is greater than 50 µM. Same read-out and setting: the result for `CN1CCN(c2ccc3[nH]c(=O)nc(-c4ccccc4)c3c2)CC1` [Compound 36] reads greater than 50 µM; that for `O=c1nc(-c2ccccc2)c2cc(N3CCNCC3)ccc2[nH]1` [Compound 37], greater than 25 µM.

`O=c1nc(-c2ccccc2)c2cc(N3CCOCC3)ccc2[nH]1` [Compound 38] returned an EC50 in data set [1] greater than 50 µM.

For the compound `Cc1ccccc1-c1nc(=O)[nH]c2ccc(-c3cc[nH]n3)cc12` [Compound 39], the EC50 in data set [1] was greater than 50 µM; in data set [3] it was less than 10 µM.

As to `COc1ccccc1-c1nc(=O)[nH]c2ccc(-c3cc[nH]n3)cc12` [Compound 40], in data set [1], the EC50 was greater than 50 µM. Still for that read-out and setting: the result for `O=c1nc(C2CCCCC2)c2cc(-c3cc[nH]n3)ccc2[nH]1` [Compound 41] reads greater than 50 µM. On to `O=c1nc(C2CCC2)c2cc(-c3cc[nH]n3)ccc2[nH]1` [Compound 42], for which, in data set [2] (relative to C4-phenyl analog 24), the “fold loss of potency in T. brucei assay” value is reported as roughly 6 fold. The compound further came in with a 50% effective concentration (EC50) in data set [1] greater than 50 µM.

The EC50 is the concentration that produces a half-maximal response.
